The text below walks through data of patent publication US20220193111A1, “Method of Treatment” (The University Court of the University of Edinburgh, priority 2018, published 2022).

For series [1], the system named is HUVECs. Put plainly: ECIS plasma membrane capacitance analysis. The class given is cell-based, human. Conditions: HUVECs knock-down for miR-148b. How it is done:
Confluent HUVECs were transfected with controls or miR-148b mimic or anti-miR-148b and, plated on the ECIS chip array (8W1E or 8W10E). The migration speed was calculated in μm/h, capacitance of the plasma membrane is Cm (μF/cm^2) as reported in Giaever, I, and Keese, C R (1991)^29.

Series [2] concerns HUVECs. Put plainly: Immunofluorescence of transfected HUVECs. Conditions: anti-miR, 48 hrs. The class given is cell-based, human. On the procedure:
Cells were fixed using 4% paraformaldehyde in PBS at room temperature for 15 min. For intracellular staining, fixed cells were permeabilized using 0.5% Triton X-100 in PBS (Sigma-Aldrich) or 0.1% Saponin in PBS at room temperature for 10 min. The blocking of […] antibody activity was performed using 3% bovine serum albumin (BSA) in PBS for 1 hour. Samples were incubated with antibodies to CD31 (Abcam, ab28364, 1:50), VE-cadherin (Abcam, ab33168, 1:100), FSP-1 (Abcam, ab41532, 1:200) and COL1A1 (Abcam, ab138492, 1:100) in PBS containing 1% BSA at 4° C. overnight. Samples were washed extensively with PBS and incubated with Alexa-Fluor-488-conjugated antibodies to rabbit IgG (Life Technologies, Carlsbad, Calif., #A11070) and Alexa-Fluor-594-conjugated antibodies to rabbit IgG (Life Technologies, Carlsbad, Calif., #A11072) in DAPI with PBS with 1% BSA at room temperature for 1 h. Image analysis was performed on Zeiss LSM 780 confocal microscope.

Take “anti-miR-148b: miR-148b inhibitor oligonucleotide; suitable inhibitor: hsa-miR-148b-3p miRCURY LNA inhibitor, CAAAGTTCTGTGATGCACTG (SEQ ID NO: 6) (commercial miRCURY LNA inhibitor, LNA positions not given here)”: in the series on HUVECs [1], the “membrane capacitance (Cm)” value is “increased”. Also, in the series with HUVECs [2], the “CD31 and VE-cadherin immunoreactivity” value is listed as “pronounced decrease”; the “COL1A1 and FSP-1 immunoreactivity” value is “increase”; the rounded/cobblestone morphology entry is listed as “lost”.
